Assay results taken from patent publication US10407445B2, “Hepatitis C virus inhibitors” (ENANTA PHARMACEUTICALS, INC., priority 2013, dated 2019).

What was measured:
Format in all cases: cell-based
HCV GT 3a replicon = experiment: HCV replicon assay, GT2a chimeric replicon expressing NS5A from GT3a strain S52; conditions: Hepatitis C virus, 72 h, read-out: EC50 3a
Description: (§1) The activity of compounds was determined against HCV replicons representing genotypes (GT) 1a, 1b, 2a, and 3a. To generate stable Huh-7.5-based cell lines, HCV replicons were engineered to express the Renilla luciferase reporter (hRluc) fused to the neomycin phosphotransferase (Neo) gene. GT2a and GT3a HCV replicons were based on the JFH-1 subgenomic replicon (Kato et al. 2003 Gastroenterology, 125:1808-1817), in which the NS5A gene was replaced with that of strains J6 and S52 (GT2a and G3a, respectively). The activity of compounds against GT1a replicons encoding NS5A mutations (M28T, Q30R, L31M, Y93C, and Y93H) was also determined in a transient replication assay. The parental GT1a and GT2a replicons (pH/SG-Neo(L+I) and pSG-Neo-JFH1, respectively) were licensed from Apath LLC (Saint Louis, Mo.). The parental GT 1b replicon (pFKi389lucubineo_3_3′_ET) was licensed from ReBLikon GmbH (Germany). HCV replicons were constructed by standard molecular biology techniques described below. All replicon constructs were verified by restriction enzyme digestion and DNA sequencing.
The plasmid pSG-hRlucNeo-JFH1 was generated from pSG-Neo-JFH1 (Kato et al. 2003, Gastroentrology 125:1808-1817). A fragment containing the JFH-1 5′ NTR—hRluc-Neo gene and two unique restriction sites (AgeI and PmeI) was synthesized (Integrated DNA Technologies, Coralville, Iowa). The resulting synthetic plasmid was digested with AgeI and PmeI and the excised fragment (5′NTR-hRluc-Neo) was ligated into pSG-Neo-JFH1 digested with the same enzymes to generate pSG-hRlucNeo-JFH1. To allow expression of heterologous NS5A sequences, an NS5A shuttle vector was generated from pSG-Neo-JFH1, in which the entire coding sequence of NS5A plus the first eight codons of NS5B were replaced with an AfeI restriction site. This was done by Infusion cloning (Clontech, Mountain View, Calif.) from two PCR products that were generated using pSG-Neo-JFH1 as a template and the following primer pairs:
Underlined sequences denote regions of overlap necessary for Infusion cloning. Purified PCR products were cloned directly into an NsiI/SnaBI digested pSG-Neo-JFH1 following the manufacturer's instructions to generate pSG-Neo-JFH1-5Ashuttle. The 2023 base pair AgeI/PmeI fragment from pSG-hRlucNeo-JFH1 was then ligated into pSG-Neo-JFH1-5Ashuttle to generate pSG-hRlucNeo-JFH1-5Ashuttle. To generate the 2a-2a-(J6) and 2a-3a-(S52) NS5A chimeric replicons, the full length NS5A sequences from GT2a strain J6 (accession AF177036) and GT3a strain S52 (accession GU814263), with the addition of the first eight codons of JFH-1 NS5B (5′-TCCATGTCATACTCCTGGACCGGG-3′), were synthesized by GeneArt (Life Technologies, Carlsbad Calif.). J6 and S52 NS5A sequences were then PCR amplified from the synthetic clones using the appropriate forward primer:
Underlined sequences denote regions of overlap with pSG-hRlucNeo-JFH1-5Ashuttle necessary for Infusion cloning. Purified PCR products were directly cloned into AfeI-digested shuttle vector by Infusion cloning following the manufacturer's instructions.
Stable HCV replicon cell lines were grown in complete media (Dulbecco's modified Eagle medium [DMEM], 2 mM L-glutamine, 0.1 mM essential amino acids, 1 mM sodium pyruvate, 10% heat inactivated fetal bovine serum) with the addition 500 μg/ml […] (G418). Huh7-lunet cells were maintained in the same medium without the addition of G418. Cells were routinely passaged at a dilution of 1:4 two times a week. The assay medium for both luciferase reporter HCV replicon and cytotoxicity assays used phenol red-free DMEM and lacked G418. For each stable replicon assay, a sixteen point half-log dilution series of compound was stamped (0.5 ul compound per well) into three replica 384-well plates, to which cells were added directly (4000 cells/well). […]

HCV GT 1b replicon = experiment: HCV replicon assay, stable GT 1b replicon (Renilla luciferase); conditions: Hepatitis C virus, GT1B, 72 h
Description: as §1
The hRluc-Neo cassette was PCR amplified from pF9 cytomegalovirus (CMV) hRluc-Neo Flexi(R) (Promega) using Accuprime Super Mix II (Invitrogen) and the following primers, which introduce restriction sites: […]
The amplification product was subcloned into pCR2.1-TOPO (Invitrogen). The resulting plasmid was digested with AscI and NotI, and the excised hRluc-Neo fragment was ligated using the Roche Quick Ligation Kit (Roche) into pFKi389lucubineo_3_3′_ET digested with the same enzymes.
Stable HCV replicon cell lines were grown in complete media (Dulbecco's modified Eagle medium [DMEM], 2 mM L-glutamine, 0.1 mM essential amino acids, 1 mM sodium pyruvate, 10% heat inactivated fetal bovine serum) with the addition 500 μg/ml […] (G418). Huh7-lunet cells were maintained in the same medium without the addition of G418. Cells were routinely passaged at a dilution of 1:4 two times a week. The assay medium for both luciferase reporter HCV replicon and cytotoxicity assays used phenol red-free DMEM and lacked G418. For each stable replicon assay, a sixteen point half-log dilution series of compound was stamped (0.5 ul compound per well) into three replica 384-well plates, to which cells were added directly (4000 cells/well). For the transient replication assay, Huh7-lunet cells in ice-cold phosphate buffered saline (PBS) were electroporated (BioRad electroporator; 950 uF, 270V) with 10 ug purified in vitro transcribed HCV replicon RNA, followed by resuspension in complete media and plating (8000 cells/well) into compound stamped 384-well plates. Luciferase activity of compound-treated cells was measured relative to DMSO-treated cells after 72 h incubation using RENILLA-GLO™ Luciferase Assay (Promega). Cytotoxicity (CC50) in the GT1b replicon cell line was analyzed using CELL TITER-GLO™ (Promega).
The compounds of the present invention can be effective against the HCV 1b genotype. It should also be understood that the compounds of the present invention can inhibit multiple genotypes of HCV. In one embodiment compound of the present invention are active against the 1a, 1b, 2a, 2b, 3a, 4a, and 5a genotypes. In another embodiment compound of the present invention are active against the HCV resistant mutants. […] EC50s are in pM against HCV GT 1a and GT 1b; and nM against GT 2a-J6, GT 3a and GT1a resistant variants (M28T, Q30R, L31V, Y93C and Y93H).

[1] = tested on: GT1a replicon encoding NS5A mutation L31V; experiment: Transient replication assay, GT1a replicon with NS5A mutation L31V; conditions: Hepatitis C virus, read-out: EC50 1a L31V

| SMILES | EC50 (HCV GT 3a replicon) [pM] | EC50 (HCV GT 1b replicon) [pM] | EC50 [1] [pM] |
| --- | --- | --- | --- |
| COC(=O)N[C@H](C(=O)N1C[C@]2(CCCOC2)C[C@H]1c1ncc(-c2ccc3c(c2)COc2cc(-c4cnc([C@@H]5C[C@@H]6CCCC[C@@H]6N5C(=O)[C@@H](NC(=O)OC)C(C)C)[nH]4)ccc2-3)[nH]1)C(C)C [Compound 15] | 200 | 12 | 100 |
| COC(=O)N[C@H](C(=O)N1CC2(CC2)C[C@H]1c1nc2ccc3cc(-c4ccc5c(ccc6nc([C@@H]7C[C@@]8(CCCOC8)CN7C(=O)[C@@H](NC(=O)OC)C(C)C)[nH]c65)c4)ccc3c2[nH]1)C(C)C [Compound 7] | 50 | 12 | 100 |
| COC(=O)N[C@H](C(=O)N1C[C@]2(CCCOC2)C[C@H]1c1ncc(-c2ccc(-c3ccc4c(c3)OCc3nc([C@@H]5C[C@@H]6CCCC[C@@H]6N5C(=O)[C@@H](NC(=O)OC)C(C)C)[nH]c3-4)cc2)[nH]1)C(C)C [Compound 42] | 1000 | 6 | 200 |
| COC(=O)N[C@H](C(=O)N1C[C@]2(CCCOC2)C[C@H]1c1ncc(-c2ccc(-c3ccc(-c4cnc([C@@H]5C[C@@H]6CCCC[C@@H]6N5C(=O)[C@@H](NC(=O)OC)C(C)C)[nH]4)cc3)cc2)[nH]1)C(C)C [Compound 32] | 2000 | 6 | 400 |
| COC(=O)N[C@H](C(=O)N1C[C@]2(CCCOC2)C[C@H]1c1ncc(-c2ccc(-c3ccc4c(ccc5nc([C@@H]6C[C@H]7C[C@H]7N6C(=O)[C@@H](NC(=O)OC)C(C)C)[nH]c54)c3)cc2)[nH]1)C(C)C [Compound 18] | 1000 | 11 | 300 |
| COC(=O)N[C@H](C(=O)N1C[C@]2(CCCOC2)C[C@H]1c1nc2ccc3cc(-c4ccc(-c5cnc([C@@H]6C[C@H]7C[C@H]7N6C(=O)[C@@H](NC(=O)OC)C(C)C)[nH]5)cc4)ccc3c2[nH]1)C(C)C [Compound 5] | 500 | 11 | 100 |
| COC(=O)N[C@H](C(=O)N1C[C@]2(CCCOC2)C[C@H]1c1nc2ccc3cc(-c4ccc(-c5cnc([C@@H]6C[C@@H]7CCC[C@@H]7N6C(=O)[C@@H](NC(=O)OC)C(C)C)[nH]5)cc4)ccc3c2[nH]1)C(C)C [Compound 10] | 200 | 5 | 50 |
| COC(=O)N[C@H](C(=O)N1C[C@]2(CCCOC2)C[C@H]1c1ncc(-c2ccc(-c3ccc4c(c3)OCc3nc([C@@H]5CCCN5C(=O)[C@@H](NC(=O)OC)C(C)C)[nH]c3-4)cc2)[nH]1)C(C)C [Compound 30] | 2000 | 45 | 1000 |
| COC(=O)N[C@H](C(=O)N1C[C@]2(CCCOC2)C[C@H]1c1nc2ccc3cc(-c4ccc(-c5cnc([C@@H]6C[C@@H]7C[C@@H]7N6C(=O)[C@@H](NC(=O)OC)C(C)C)[nH]5)cc4)ccc3c2[nH]1)C(C)C [Compound 22] | 600 | 8 | 900 |
| COC(=O)N[C@H](C(=O)N1C[C@]2(CCCOC2)C[C@H]1c1nc2ccc3cc(-c4ccc(-c5cnc([C@@H]6C[C@@H]7CCCC[C@@H]7N6C(=O)[C@@H](NC(=O)OC)C(C)C)[nH]5)cc4)ccc3c2[nH]1)C(C)C [Compound 24] | 100 | 6 | 70 |
| COC(=O)N[C@H](C(=O)N1[C@H](c2nc3ccc4cc(-c5ccc(-c6cnc([C@@H]7C[C@@]8(CCCOC8)CN7C(=O)[C@@H](NC(=O)OC)C7C[C@@H](C)O[C@H](C)C7)[nH]6)cc5)ccc4c3[nH]2)C[C@@H]2CCCC[C@@H]21)C(C)C (stereo in doubt) [Compound 38] | 70 | 15 | 2 |
| COC(=O)N[C@H](C(=O)N1C[C@@]2(CCCO2)C[C@H]1c1ncc(-c2ccc(-c3ccc4c(ccc5nc([C@@H]6CCCN6C(=O)[C@@H](NC(=O)OC)C(C)C)[nH]c54)c3)cc2)[nH]1)C(C)C [Example 82] | 5000 | 8 | 46000 |
| COC(=O)N[C@H](C(=O)N1C[C@]2(CCCOC2)C[C@H]1c1nc2ccc3cc(-c4ccc5c(ccc6nc([C@@H]7C[C@@H]8CCCC[C@@H]8N7C(=O)[C@@H](NC(=O)OC)C(C)C)[nH]c65)c4)ccc3c2[nH]1)C(C)C [Compound 23] | 60 | 7 | 70 |
| COC(=O)N[C@H](C(=O)N1C[C@]2(CCCOC2)C[C@H]1c1ncc(-c2ccc(-c3ccc4c(ccc5nc([C@@H]6C[C@@H]7C[C@@H]7N6C(=O)[C@@H](NC(=O)OC)C(C)C)[nH]c54)c3)cc2)[nH]1)C(C)C [Compound 20] | 1000 | 11 | 7000 |
| COC(=O)N[C@H](C(=O)N1CCC[C@H]1c1nc2ccc3cc(-c4ccc5c(ccc6nc([C@@H]7C[C@@]8(CCCOC8)CN7C(=O)[C@@H](NC(=O)OC)C(C)C)[nH]c65)c4)ccc3c2[nH]1)C(C)C [Compound 48] | 70 | 9 | 500 |
| COC(=O)N[C@H](C(=O)N1CCC[C@H]1c1ncc(-c2ccc(-c3ccc4c(ccc5nc([C@@H]6CCCN6C(=O)[C@@H](NC(=O)OC)C(C)C)[nH]c54)c3)cc2)[nH]1)C(C)C [Example 102] | 60 | 14 | 8000 |
| COC(=O)N[C@H](C(=O)N1C[C@]2(CCCOC2)C[C@H]1c1nc2ccc3cc(-c4ccc(-c5cnc([C@@H]6C[C@@H]7COC[C@@H]7N6C(=O)[C@@H](NC(=O)OC)C(C)C)[nH]5)cc4)ccc3c2[nH]1)C(C)C [Compound 34] | 1500 | 41 | 80 |
| COC(=O)N[C@H](C(=O)N1C[C@]2(CCCOC2)C[C@H]1c1ncc(-c2ccc(-c3ccc4c(ccc5nc([C@@H]6C[C@@]7(CCCOC7)CN6C(=O)[C@@H](NC(=O)OC)C(C)C)[nH]c54)c3)cc2)[nH]1)C(C)C [Compound 11] | 400 | 52 | 80 |
